Laboratory results as given in the NIST ThermoML archive (doi:10.1021/acs.jced.9b00078).

Conditions: Liquid, Other PVT measurement

CCCCCCCCCCCCCCCC [hexadecane]
mass density [kg/m3]
Conditions	10000 kPa	20000 kPa	30000 kPa	40000 kPa	50000 kPa
298.2 K	775.86	782.89	788.75	793.81	799.18
303.2 K	773.66	779.38	785.01	790.38	795.64
313.2 K	764.59	773.09	778.81	784.36	789.46
323.2 K	759.8	766.48	773.19	778.83	784.38
333.2 K	753.38	760.44	767.3	773.53	779.1
348.2 K	744.11	751.32	758.67	765.1	770.98
353.2 K	740.03	748.27	755.72	762.19	768.11
373.2 K	727.81	736.02	744.18	751.02	757.42
393.2 K	713.25	723.64	732.3	739.4	746.41
413.2 K	700.27	711.23	720.49	728.42	735.85
423.2 K	694.3	705.01	714.62	722.88	730.73
433.2 K	687.01	698.74	708.69	717.4	725.14
453.2 K	674.02	686.53	696.77	706.13	714.59
463.2 K	669.34	680.32	690.8	700.49	709.18
473.2 K	660.45	673.95	685.23	695.19	704.05
